Measured values taken from ChEMBL document CHEMBL4622916, “Synthesis of tetracyclic oxindoles and evaluation of their α-glucosidase inhibitory and glucose consumption-promoting activity” (Bioorg Med Chem Lett, 2020).
Active and inactive are the calls of the source. The rule behind the calls is not given here.

Species: Homo sapiens
Assay: Potency index, ratio of IC50 of acarbose to IC50 of compound for inhibition of alpha-glucosidase (unknown origin)

With COc1ccc(CN2C(=O)C3(c4cc(Br)ccc42)[C@H](C(=O)/C=C/c2ccc(N(C)C)cc2)[C@@H](c2ccc(N(C)C)cc2)[C@@H]2CSCN23)cc1 (stereo not given in full) the Ratio IC50 was 14.

Tested on: HepG2
Assay: Cytotoxicity against human HepG2 cells
Assay type: cell-based

With COc1ccc(CN2C(=O)C3(c4cc(Br)ccc42)[C@H](C(=O)/C=C/c2ccc(N(C)C)cc2)[C@@H](c2ccc(N(C)C)cc2)[C@@H]2CSCN23)cc1 (stereo not given in full) the Activity was “Non-Toxic”.

Species: Homo sapiens
Assay: Reversible competitive inhibition of alpha-glucosidase (unknown origin) by Lineweaver-Burk plot analysis

With COc1ccc(CN2C(=O)C3(c4cc(Br)ccc42)[C@H](C(=O)/C=C/c2ccc(N(C)C)cc2)[C@@H](c2ccc(N(C)C)cc2)[C@@H]2CSCN23)cc1 (stereo not given in full) the inhibition was “Active”.

Tested on: HepG2
Assay: Increase in glucose consumption in human HepG2 cells at 1 to 5 uM
Assay type: functional, cell-based

For COc1ccc(CN2C(=O)C3(c4cc(Br)ccc42)[C@H](C(=O)/C=C/c2ccc(N(C)C)cc2)[C@@H](c2ccc(N(C)C)cc2)[C@@H]2CSCN23)cc1 (stereo not given in full), the Activity was “Active”.

Biological target: not listed separately
Assay: Inhibition of alpha-glucosidase (unknown origin)
Design: species or system Homo sapiens

COC(=O)/C=C/c1ccc2c(c1)C1(C(=O)N2Cc2ccc(OC)cc2)[C@H](C(=O)/C=C/c2ccccc2Br)[C@@H](c2ccccc2Br)[C@@H]2CSCN21 (stereo not given in full) and COc1ccc(CN2C(=O)C3(c4cc(Br)ccc42)[C@H](C(=O)/C=C/c2ccccc2Br)[C@@H](c2ccccc2Br)[C@@H]2CSCN23)cc1 (stereo not given in full) are within 1.5-fold of each other in IC50: 4.68 µM for the first, 4.09 µM for the second.

Compared with COC(=O)/C=C/c1ccc2c(c1)C1(C(=O)N2Cc2ccc(OC)cc2)[C@H](C(=O)/C=C/c2ccc(-c3ccccc3)cc2)[C@@H](c2ccc(-c3ccccc3)cc2)[C@@H]2CSCN21 (stereo not given in full), COC(=O)/C=C/c1ccc2c(c1)C1(C(=O)N2Cc2ccc(OC)cc2)[C@H](C(=O)/C=C/c2ccccc2)[C@@H](c2ccccc2)[C@@H]2CSCN21 (stereo not given in full) is 2-fold higher in IC50: 4.14 µM for the first, 8.33 µM for the second. The first is the more potent here.

CCN(CC)c1ccc(/C=C/C(=O)[C@@H]2[C@@H](c3ccc(N(CC)CC)cc3)[C@@H]3CSCN3C23C(=O)N(Cc2ccc(OC)cc2)c2ccc(/C=C/C(=O)OC)cc23)cc1 (stereo not given in full) and COC(=O)/C=C/c1ccc2c(c1)C1(C(=O)N2Cc2ccc(OC)cc2)[C@H](C(=O)/C=C/c2ccc(N(C)C)cc2)[C@@H](c2ccc(N(C)C)cc2)[C@@H]2CSCN21 (stereo not given in full) are within 1.5-fold of each other in IC50: 7.43 µM for the first, 9.47 µM for the second.

COC(=O)/C=C/c1ccc2c(c1)C1(C(=O)N2Cc2ccc(OC)cc2)[C@H](C(=O)/C=C/c2ccc(Cl)cc2)[C@@H](c2ccc(Cl)cc2)[C@@H]2CSCN21 (stereo not given in full) and COC(=O)/C=C/c1ccc2c(c1)C1(C(=O)N2Cc2ccc(OC)cc2)[C@H](C(=O)/C=C/c2ccc(F)cc2)[C@@H](c2ccc(F)cc2)[C@@H]2CSCN21 (stereo not given in full) are within 1.5-fold of each other in IC50: 4.73 µM for the first, 4.47 µM for the second.

First: O=C(/C=C/c1ccccc1Cl)[C@@H]1[C@@H](c2ccccc2Cl)[C@@H]2CSCN2C12C(=O)Nc1ccccc12 (stereo not given in full)
Second: O=C(/C=C/c1ccccc1Br)[C@@H]1[C@@H](c2ccccc2Br)[C@@H]2CSCN2C12C(=O)Nc1ccccc12 (stereo not given in full)
The IC50 of the first is 2.2-fold higher: 9.8 µM for the first, 4.47 µM for the second. The second is the more potent here.

COc1ccc(CN2C(=O)C3(c4cc(Br)ccc42)[C@H](C(=O)/C=C/c2ccc(N(C)C)cc2)[C@@H](c2ccc(N(C)C)cc2)[C@@H]2CSCN23)cc1 (stereo not given in full) and COc1ccc(CN2C(=O)C3(c4cc(Br)ccc42)[C@H](C(=O)/C=C/c2ccc(Cl)cc2)[C@@H](c2ccc(Cl)cc2)[C@@H]2CSCN23)cc1 (stereo not given in full) are within 1.5-fold of each other in IC50: 3.64 µM for the first, 3.9 µM for the second.

Compared with O=C(/C=C/c1ccccc1)[C@@H]1[C@@H](c2ccccc2)[C@@H]2CSCN2C12C(=O)Nc1ccccc12 (stereo not given in full), O=C(/C=C/c1ccc(Cl)cc1)[C@@H]1[C@@H](c2ccc(Cl)cc2)[C@@H]2CSCN2C12C(=O)Nc1ccccc12 (stereo not given in full) is 2.1-fold lower in IC50: 16.1 µM for the first, 7.49 µM for the second. The second is the more potent here.

Compared with O=C(/C=C/c1ccc(Cl)cc1Cl)[C@@H]1[C@@H](c2ccc(Cl)cc2Cl)[C@@H]2CSCN2C12C(=O)Nc1ccccc12 (stereo not given in full), COc1ccc(CN2C(=O)C3(c4cc(Br)ccc42)[C@H](C(=O)/C=C/c2ccc(Cl)cc2Cl)[C@@H](c2ccc(Cl)cc2Cl)[C@@H]2CSCN23)cc1 (stereo not given in full) is 1.9-fold higher in IC50: 7.4 µM for the first, 14.1 µM for the second. The first is the more potent here.

Going from O=C(/C=C/c1ccc(Cl)cc1)[C@@H]1[C@@H](c2ccc(Cl)cc2)[C@@H]2CSCN2C12C(=O)Nc1ccc(Br)cc12 (stereo not given in full) to Cc1ccc(/C=C/C(=O)[C@@H]2[C@@H](c3ccc(C)cc3)[C@@H]3CSCN3C23C(=O)Nc2ccccc23)cc1 (stereo not given in full), the IC50 rises from 4.9 µM to 18.9 µM (3.9-fold).

Going from COC(=O)/C=C/c1ccc2c(c1)C1(C(=O)N2Cc2ccc(OC)cc2)[C@H](C(=O)/C=C/c2ccc(OC)cc2)[C@@H](c2ccc(OC)cc2)[C@@H]2CSCN21 (stereo not given in full) to COC(=O)/C=C/c1ccc2c(c1)C1(C(=O)N2Cc2ccc(OC)cc2)[C@H](C(=O)/C=C/c2ccc(Br)cc2)[C@@H](c2ccc(Br)cc2)[C@@H]2CSCN21 (stereo not given in full), the IC50 rises from 3.81 µM to 8.44 µM (2.2-fold).

First: COC(=O)/C=C/c1ccc2c(c1)C1(C(=O)N2Cc2ccc(OC)cc2)[C@H](C(=O)/C=C/c2ccc(Cl)cc2Cl)[C@@H](c2ccc(Cl)cc2Cl)[C@@H]2CSCN21 (stereo not given in full)
Second: COc1ccc(/C=C/C(=O)[C@@H]2[C@@H](c3ccc(OC)c(OC)c3)[C@@H]3CSCN3C23C(=O)Nc2ccccc23)cc1OC (stereo not given in full)
The IC50 of the first is lower: 4.49 µM for the first, > 50 µM for the second. The first is the more potent here.

First: CN(C)c1ccc(/C=C/C(=O)[C@@H]2[C@@H](c3ccc(N(C)C)cc3)[C@@H]3CSCN3C23C(=O)Nc2ccccc23)cc1 (stereo not given in full)
Second: O=C(/C=C/c1ccco1)[C@@H]1[C@@H](c2ccco2)[C@@H]2CSCN2C12C(=O)Nc1ccccc12 (stereo not given in full)
The IC50 of the first is lower: 4.81 µM for the first, > 50 µM for the second.

COc1ccc(CN2C(=O)C(=O)c3cc(Br)ccc32)cc1 and C[C@H]1O[C@H](O[C@H]2[C@H](O)[C@@H](O)[C@@H](O[C@H]3[C@H](O)[C@@H](O)C(O)O[C@@H]3CO)O[C@@H]2CO)[C@H](O)[C@@H](O)[C@@H]1N[C@H]1C=C(CO)[C@@H](O)[C@H](O)[C@H]1O (stereo not given in full) [ACARBOSE] are within 1.5-fold of each other in IC50: 39.9 µM for the first, 50.3 µM for the second.
